Reference: patent US11149230B2, “Process for extracting carboxylic acids produced by anaerobic fermentation from fermentable biomass” (AFYREN, priority 2015, dated 2021)

Legend:
[1] = system: optimized anaerobic microbial mix; assay: Test 3: comparison of fermentation in the presence or absence of octanoic acid; type: cell-based; conditions: restoration waste 50 g/l dry matter, initial addition of 0.7 g/l
Experimental: Two fermentations of grass cuttings/mowings in non-sterile mode, at a concentration of 25 g/l of dry matter, in an anaerobic bioreactor with a working volume of 2 l, operated in mesophilic mode (38° C.), were carried out in parallel for 160 h. In the first experiment, after inoculation of an optimized anaerobic microbial mix, an initial addition of heptanoic acid in an amount of 2.8 g/l was carried out. […] The second fermentation, which is de facto a control culture, was carried out in parallel under the same conditions except for the addition of heptanoic acid.

[2] = system: optimized anaerobic microbial mix; assay: Test 2: comparison of fermentations in the presence or absence of heptanoic acid; type: cell-based; conditions: grass cuttings/mowings 25 g/l dry matter, 38° C., 160 h, initial addition of 2.8 g/l
Experimental: Two fermentations of grass cuttings/mowings in non-sterile mode, at a concentration of 25 g/l of dry matter, in an anaerobic bioreactor with a working volume of 2 l, operated in mesophilic mode (38° C.), were carried out in parallel for 160 h. In the first experiment, after inoculation of an optimized anaerobic microbial mix, an initial addition of heptanoic acid in an amount of 2.8 g/l was carried out. This presence of heptanoic acid makes it possible to understand the biocompatible nature of an extraction carried out with this type of solvent. Indeed, the culture medium after extraction is reintroduced into the bioreactor and may contain traces of extraction solvent up to the amount of their solubility threshold. The second fermentation, which is de facto a control culture, was carried out in parallel under the same conditions except for the addition of heptanoic acid.
During these fermentations, liquid-phase and gas-phase metabolite monitorings were carried out. At the end of fermentation, the yields obtained regarding the production of volatile fatty acids is 0.33 g of VFA/g of dry matter in the case of the experiment with the addition of heptanoic acid, and 0.39 g of VFA/g of dry matter for the control fermentation. […]

SMILES: CCCCCCCC(=O)O [octanoic acid, Octanoic acid]
- yield of production of volatile fatty acids at the end of fermentation [1]: 0.3 g of VFA/g of dry matter

SMILES: CCCCCCC(=O)O [heptanoic acid, Heptanoic acid]
- negative effect on the production of volatile fatty acids versus control fermentation [2]: about 15%
- yield of production of volatile fatty acids at the end of fermentation [2]: 0.33 g of VFA/g of dry matter
